Test system: SOX2
Assay: SOX2 mRNA and protein expression in selinexor-treated isogenic cell lines
Assay type: cell-based
Settings: H1563, 22PC and LnCap cell lines, selinexor 5 nM for 4 days
From the text: FIGS. 6A-6J: Exportin 1 inhibition downregulates SOX2 expression, hindering the acquisition of NE features. Pathway enrichment analysis on DEGs from enzalutamide versus control (FIG. 6A) and combo versus enzalutamide (FIG. 6B) conditions in the transcriptomic data from TP53/RB1 DKO 22PC xenografts treated in vivo and collected at control arm experimental endpoint (day 31). Categorized pathways of interest, previously involved in NE transformation^5,6, are shown. FIG. 6C: SOX2 mRNA expression in tumors divided by treatment condition. mRNA expression values are shown as TPM (n=4, 3, 3 and 3 tumors for the control, enzalutamide-, selinexor- and combo-treated tumors). […] Mice weights and tumor volumes were measured twice a week and mice were sacrificed when tumors reached humane endpoint (volume=1000 mm^3). […] For western blots and mRNA plots, representative images are shown. p-values were calculated using the Student's t-test (unpaired, heterogeneous variances, two-tailed). p-value legend: *<0.05, **<0.01, ***<0.001. […]
Protein extraction and western blot were performed as previously described^24 from frozen cell pellets or flash-frozen tumor samples using RIPA lysis buffer with 1×HALT protease inhibitor cocktail (Thermo, #78446). […] Quantifications were performed with the Image Studio software (Version 3.1, Li-Cor). […]

SMILES: O=C(/C=C\n1cnc(-c2cc(C(F)(F)F)cc(C(F)(F)F)c2)n1)NNc1cnccn1 [selinexor]
- induction of SOX2 mRNA and protein by TP53/RB1 inactivation: prevented
